Reference: the NIST ThermoML archive (doi:10.1021/je0302304)

Test: refractive index (Na D-line) (dimensionless); xn = mol fraction of the nth substance listed
Details: 101.32 kPa, Liquid, Standard Abbe refractometry

COCCOCCOCCOCCOC [2,5,8,11,14-pentaoxapentadecane] + CCO
refractive index
Details | 288.15 K | 298.15 K | 308.15 K | 318.15 K
x1 = 0.0045 | 1.3644 | 1.3604 | 1.3564 | 1.3522
x1 = 0.0085 | 1.3656 | 1.3615 | 1.3575 | 1.3533
x1 = 0.0125 | 1.3667 | 1.3627 | 1.3586 | 1.3545
x1 = 0.0165 | 1.3678 | 1.3638 | 1.3598 | 1.3556
x1 = 0.0205 | 1.3689 | 1.3649 | 1.3608 | 1.3567
x1 = 0.0305 | 1.3714 | 1.3674 | 1.3634 | 1.3593
x1 = 0.05 | 1.376 | 1.372 | 1.368 | 1.3641
x1 = 0.1 | 1.3858 | 1.3819 | 1.3779 | 1.3741
x1 = 0.15 | 1.3936 | 1.3897 | 1.3857 | 1.3818
x1 = 0.2 | 1.3999 | 1.396 | 1.392 | 1.3881
x1 = 0.25 | 1.405 | 1.4011 | 1.3971 | 1.3931
x1 = 0.3 | 1.4093 | 1.4053 | 1.4013 | 1.3973
x1 = 0.35 | 1.4129 | 1.4089 | 1.4049 | 1.4009
x1 = 0.4 | 1.4159 | 1.412 | 1.408 | 1.404
x1 = 0.45 | 1.4186 | 1.4146 | 1.4106 | 1.4067
x1 = 0.5 | 1.4209 | 1.417 | 1.413 | 1.409
x1 = 0.55 | 1.423 | 1.419 | 1.415 | 1.411
x1 = 0.6 | 1.4248 | 1.4208 | 1.4168 | 1.4128
x1 = 0.6499 | 1.4264 | 1.4225 | 1.4184 | 1.4144
x1 = 0.7 | 1.4279 | 1.4239 | 1.4199 | 1.4159
x1 = 0.7498 | 1.4292 | 1.4252 | 1.4212 | 1.4172
x1 = 0.7999 | 1.4304 | 1.4264 | 1.4224 | 1.4184
x1 = 0.8499 | 1.4315 | 1.4275 | 1.4234 | 1.4194
x1 = 0.8997 | 1.4326 | 1.4285 | 1.4244 | 1.4204
x1 = 0.9496 | 1.4335 | 1.4294 | 1.4253 | 1.4213
x1 = 1 | 1.4344 | 1.4303 | 1.4262 | 1.4221

COCCOCCOCCOC [2,5,8,11-tetraoxadodecane] + CCO
refractive index
Details | 288.15 K | 298.15 K | 308.15 K | 318.15 K
x1 = 0.0045 | 1.3641 | 1.36 | 1.3559 | 1.3517
x1 = 0.0085 | 1.3648 | 1.3608 | 1.3567 | 1.3525
x1 = 0.0125 | 1.3656 | 1.3616 | 1.3575 | 1.3533
x1 = 0.0165 | 1.3664 | 1.3624 | 1.3583 | 1.3541
x1 = 0.0205 | 1.3672 | 1.3632 | 1.359 | 1.3548
x1 = 0.0305 | 1.3691 | 1.365 | 1.3609 | 1.3567
x1 = 0.05 | 1.3724 | 1.3684 | 1.3644 | 1.3602
x1 = 0.1 | 1.3799 | 1.376 | 1.372 | 1.3679
x1 = 0.15 | 1.3862 | 1.3823 | 1.3782 | 1.3741
x1 = 0.2 | 1.3915 | 1.3875 | 1.3834 | 1.3794
x1 = 0.25 | 1.396 | 1.3919 | 1.3879 | 1.3839
x1 = 0.3 | 1.3998 | 1.3958 | 1.3917 | 1.3877
x1 = 0.35 | 1.4032 | 1.3991 | 1.395 | 1.391
x1 = 0.4 | 1.4061 | 1.402 | 1.3979 | 1.3939
x1 = 0.4499 | 1.4087 | 1.4046 | 1.4005 | 1.3965
x1 = 0.5 | 1.411 | 1.4069 | 1.4028 | 1.3988
x1 = 0.55 | 1.4131 | 1.409 | 1.4049 | 1.4008
x1 = 0.6 | 1.4149 | 1.4108 | 1.4067 | 1.4026
x1 = 0.65 | 1.4166 | 1.4125 | 1.4084 | 1.4043
x1 = 0.7 | 1.4181 | 1.414 | 1.4099 | 1.4058
x1 = 0.75 | 1.4195 | 1.4154 | 1.4113 | 1.4072
x1 = 0.7999 | 1.4208 | 1.4167 | 1.4126 | 1.4084
x1 = 0.8499 | 1.422 | 1.4179 | 1.4137 | 1.4096
x1 = 0.8998 | 1.4231 | 1.4189 | 1.4148 | 1.4106
x1 = 0.9498 | 1.4241 | 1.4199 | 1.4158 | 1.4116
x1 = 1 | 1.425 | 1.4209 | 1.4167 | 1.4125

COCCOC [1,2-dimethoxyethane] + CCO
refractive index
Details | 288.15 K | 298.15 K | 308.15 K | 318.15 K
x1 = 0.0045 | 1.3633 | 1.3592 | 1.3552 | 1.351
x1 = 0.0086 | 1.3634 | 1.3593 | 1.3553 | 1.3511
x1 = 0.0125 | 1.3635 | 1.3594 | 1.3554 | 1.3512
x1 = 0.0165 | 1.3636 | 1.3596 | 1.3555 | 1.3513
x1 = 0.0205 | 1.3638 | 1.3597 | 1.3557 | 1.3515
x1 = 0.0305 | 1.3642 | 1.3601 | 1.356 | 1.3518
x1 = 0.05 | 1.3649 | 1.3608 | 1.3566 | 1.3524
x1 = 0.1 | 1.3666 | 1.3624 | 1.3582 | 1.3539
x1 = 0.15 | 1.3681 | 1.3639 | 1.3596 | 1.3552
x1 = 0.2 | 1.3695 | 1.3652 | 1.3609 | 1.3565
x1 = 0.25 | 1.3709 | 1.3664 | 1.3621 | 1.3576
x1 = 0.3 | 1.3721 | 1.3676 | 1.3631 | 1.3586
x1 = 0.35 | 1.3732 | 1.3686 | 1.3641 | 1.3596
x1 = 0.4 | 1.3742 | 1.3696 | 1.3651 | 1.3605
x1 = 0.45 | 1.3751 | 1.3705 | 1.3659 | 1.3613
x1 = 0.5 | 1.376 | 1.3714 | 1.3667 | 1.362
x1 = 0.55 | 1.3768 | 1.3722 | 1.3675 | 1.3628
x1 = 0.6 | 1.3776 | 1.3729 | 1.3682 | 1.3634
x1 = 0.6499 | 1.3783 | 1.3736 | 1.3688 | 1.364
x1 = 0.7 | 1.379 | 1.3742 | 1.3694 | 1.3646
x1 = 0.7499 | 1.3796 | 1.3748 | 1.37 | 1.3652
x1 = 0.7999 | 1.3802 | 1.3754 | 1.3705 | 1.3657
x1 = 0.85 | 1.3808 | 1.3759 | 1.371 | 1.3661
x1 = 0.9 | 1.3813 | 1.3764 | 1.3715 | 1.3666
x1 = 0.9499 | 1.3818 | 1.3768 | 1.3719 | 1.3669
x1 = 1 | 1.3824 | 1.3772 | 1.3722 | 1.3672

COCCOCCOC [2,5,8-trioxanonane] + CCO
refractive index
Details | 288.15 K | 298.15 K | 308.15 K | 318.15 K
x1 = 0.0045 | 1.3636 | 1.3596 | 1.3555 | 1.3514
x1 = 0.0085 | 1.3641 | 1.3601 | 1.356 | 1.3518
x1 = 0.0125 | 1.3645 | 1.3605 | 1.3565 | 1.3523
x1 = 0.0165 | 1.365 | 1.361 | 1.3569 | 1.3528
x1 = 0.0205 | 1.3655 | 1.3615 | 1.3574 | 1.3532
x1 = 0.0305 | 1.3666 | 1.3626 | 1.3585 | 1.3543
x1 = 0.05 | 1.3687 | 1.3647 | 1.3606 | 1.3564
x1 = 0.1 | 1.3737 | 1.3696 | 1.3654 | 1.3612
x1 = 0.15 | 1.378 | 1.3739 | 1.3697 | 1.3655
x1 = 0.2 | 1.3817 | 1.3776 | 1.3734 | 1.3692
x1 = 0.25 | 1.3851 | 1.381 | 1.3767 | 1.3725
x1 = 0.3 | 1.3881 | 1.3839 | 1.3797 | 1.3754
x1 = 0.35 | 1.3907 | 1.3866 | 1.3823 | 1.378
x1 = 0.4 | 1.3931 | 1.3889 | 1.3846 | 1.3803
x1 = 0.45 | 1.3953 | 1.3911 | 1.3867 | 1.3824
x1 = 0.4999 | 1.3973 | 1.3931 | 1.3887 | 1.3843
x1 = 0.55 | 1.399 | 1.3948 | 1.3904 | 1.3861
x1 = 0.5999 | 1.4007 | 1.3965 | 1.392 | 1.3877
x1 = 0.65 | 1.4022 | 1.398 | 1.3935 | 1.3892
x1 = 0.6999 | 1.4036 | 1.3993 | 1.3949 | 1.3905
x1 = 0.7499 | 1.4049 | 1.4006 | 1.3961 | 1.3917
x1 = 0.7999 | 1.406 | 1.4018 | 1.3973 | 1.3929
x1 = 0.8499 | 1.4072 | 1.4029 | 1.3984 | 1.394
x1 = 0.8998 | 1.4082 | 1.4039 | 1.3994 | 1.395
x1 = 0.9498 | 1.4092 | 1.4049 | 1.4003 | 1.3959
x1 = 1 | 1.4101 | 1.4058 | 1.4012 | 1.3968
